According to article PMC2812926 (Journal of medicinal chemistry, 2008):

How the values were obtained:
[1] = test system: HIV-1MDR-TM; type: cell-based; conditions: PHA-PBMC
[2] = test system: HIV-1MDR-MM; type: cell-based; conditions: PHA-PBMC
[3] = test system: HIV-1MDR-JSL; type: cell-based; conditions: PHA-PBMC
[4] = test system: HIV-1MDR-B; type: cell-based; conditions: PHA-PBMC
[5] = test system: MDR/C; type: cell-based, HIV-1; conditions: PHA-PBMC
[6] = test system: HIV-1MDR-G; type: cell-based; conditions: PHA-PBMC
[7] = test system: MDR/A; type: cell-based, HIV-1; conditions: PHA-PBMC
[8] = biological target: HIV-1 protease (Human immunodeficiency virus type 1 group M subtype B, UniProt P04585); experiment: HIV-1 protease enzyme inhibitory assay; type: biochemical
[9] = test system: HIV-1ERS104pre (wild-type); experiment: Antiviral assay in PHA-PBMC, p24 Gag production, HIV-1ERS104pre; type: cell-based; conditions: PBMC versus MT-2 cells

| Compound | number in parentheses: fold change of IC50 versus ERS104pre (wild-type) [1] | number in parentheses: fold change of IC50 versus ERS104pre (wild-type) [2] | number in parentheses: fold change of IC50 versus ERS104pre (wild-type) [3] | number in parentheses: fold change of IC50 versus ERS104pre (wild-type) [4] | number in parentheses: fold change of IC50 versus ERS104pre (wild-type) [5] | number in parentheses: fold change of IC50 versus ERS104pre (wild-type) [6] | number in parentheses: fold change of IC50 versus ERS104pre (wild-type) [7] | potency change compared to 3i (enzyme Ki) [8] | further results |
| --- | --- | --- | --- | --- | --- | --- | --- | --- | --- |
| COc1ccc(S(=O)(=O)N(CC(C)C)C[C@@H](O)[C@H](Cc2ccccc2)NC(=O)OC2COCOC2)cc1 [Inhibitor 3h, (1S,2R)-{1-Benzyl-2-hydroxy-3-[isobutyl(4-methoxybenzenesulfonyl)amino]propyl}carbamic acid 1,3-dioxan-5-yl ester] | 10 | 5 | 55 | 38 | 27 | 50 | 2 | – | – |
| COc1ccc(S(=O)(=O)N(CC(C)C)C[C@@H](O)[C@H](Cc2ccccc2)NC(=O)OC2COCCN(C)CCOC2)cc1 [Inhibitor 3m, (1S,2R)-{1-Benzyl-2-hydroxy-3-[isobutyl(4-methoxybenzenesulfonyl)amino]propyl}carbamic acid N-methyl-1,7-dioxa-4-azocyclodecan-9-yl ester] | – | – | – | – | – | – | – | no change in inhibitory activity | – |
| CC(C)(C)NC(=O)[C@@H]1CN(Cc2cccnc2)CCN1C[C@@H](O)C[C@@H](Cc1ccccc1)C(=O)N[C@H]1c2ccccc2C[C@H]1O.O [IDV, Indinavir] | > 38 | > 38 | > 38 | > 38 | > 38 | 11 | > 38 | – | – |
| COc1ccc(S(=O)(=O)N(CC(C)C)C[C@@H](O)[C@H](Cc2ccccc2)NC(=O)O[C@H]2CCCOCC2)cc1 [Inhibitor 3f, (1S,2R)-{1-Benzyl-2-hydroxy-3-[isobutyl(4-methoxybenzenesulfonyl)amino]propyl}carbamic acid (S)-oxepan-4-yl ester] | – | – | – | – | – | – | – | – | reduction in enzymatic inhibitory potency with respect to 3d [8]: ~30 fold |
| COc1ccc(S(=O)(=O)N(CC(C)C)C[C@@H](O)[C@H](Cc2ccccc2)NC(=O)O[C@@H]2CCCCOC2)cc1 [Inhibitor 3e, (1S,2R)-{1-Benzyl-2-hydroxy-3-[isobutyl(4-methoxybenzenesulfonyl)amino]propyl}carbamic acid (R)-oxepan-3-yl ester] | – | – | – | – | – | – | – | – | reduction in enzymatic inhibitory potency with respect to 3d [8]: ~30 fold |
| COc1ccc(S(=O)(=O)N(CC(C)C)C[C@@H](O)[C@H](Cc2ccccc2)NC(=O)OC2COCCOCOCCOC2)cc1 [Inhibitor 3k, (1S,2R)-{1-Benzyl-2-hydroxy-3-[isobutyl(4-methoxybenzenesulfonyl)amino]propyl}carbamic acid 3,6,8,11-tetraoxacyclododecan-1-yl ester] | – | – | – | – | – | – | – | more than 2 fold | potency enhancement compared to inhibitor 3j (enzyme Ki) ([8]; compared to 3j): 5 fold |
| COc1ccc(S(=O)(=O)N(CC(C)C)C[C@@H](O)[C@H](Cc2ccccc2)NC(=O)OC2COCCS(=O)(=O)CCOC2)cc1 [Inhibitor 3l, (1S,2R)-{1-Benzyl-2-hydroxy-3-[isobutyl(4-methoxybenzenesulfonyl)amino]propyl}carbamic acid 3,9-dioxa-6-thiacyclodecan-1-yl 6,6-dioxide ester] | – | – | – | – | – | – | – | 9 fold | – |
| COc1ccc(S(=O)(=O)N(CC(C)C)C[C@@H](O)[C@H](Cc2ccccc2)NC(=O)O[C@@H]2CCOCOC2)cc1 [Inhibitor 3d, (1S,2R)-{1-Benzyl-2-hydroxy-3-[isobutyl(4-methoxybenzenesulfonyl)amino]propyl}carbamic acid (1R)-3,5-dioxacycloheptan-1-yl ester] | – | – | – | – | – | – | – | – | factor by which values in PBMCs were greater than those with MT-2 cells [9]: about 4 |
| CC(C)c1nc(CN(C)C(=O)N[C@H](C(=O)N[C@@H](Cc2ccccc2)C[C@H](O)[C@H](Cc2ccccc2)NC(=O)OCc2cncs2)C(C)C)cs1 [RTV] | > 29 | > 29 | > 29 | > 29 | > 29 | > 29 | > 29 | – | – |
